Measurements as given in US11524940B1, “Inhibitors of cysteine proteases and methods of use thereof” (priority 2020, dated 2022).

Columns and labels:
SARS-CoV2 Mpro = SARS-CoV2 Mpro (Severe acute respiratory syndrome coronavirus 2 (2019-nCoV) (SARS-CoV-2), UniProt P0DTD1); assay: COVID-19 (SARS-CoV2) Mpro enzymatic assay; format: biochemical; details: 25 nM Mpro, 25 μM substrate
229E Mpro = 229E Mpro (Human coronavirus 229E (HCoV-229E), UniProt P0C6X1); assay: 229E Mpro activity; format: biochemical; details: read-out: 229E Mpro EC50
Sequence of 229E Mpro (P0C6X1 2966-3267 limits assumed): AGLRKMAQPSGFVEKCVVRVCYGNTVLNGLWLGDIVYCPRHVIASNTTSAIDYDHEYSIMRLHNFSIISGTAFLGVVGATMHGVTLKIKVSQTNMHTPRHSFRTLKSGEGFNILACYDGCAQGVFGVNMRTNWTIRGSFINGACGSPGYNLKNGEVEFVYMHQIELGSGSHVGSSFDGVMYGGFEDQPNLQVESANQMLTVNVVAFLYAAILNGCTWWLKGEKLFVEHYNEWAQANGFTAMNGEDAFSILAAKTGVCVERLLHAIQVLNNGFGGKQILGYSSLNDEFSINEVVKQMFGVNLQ
Description: Compounds are assayed using standard methods to assess compound activity and IC50. […] The assay buffer contains 20 mM of Tris-HCl (pH 7.3), 100 mM of NaCl, 1 mM of EDTA, 5mM of TCEP and 0.1% BSA.

Row | Structure (SMILES) | IC50 (SARS-CoV2 Mpro) [µM] | EC50 (229E Mpro) [µM]
1 | COc1ccc(Cl)c2[nH]c(C(=O)N3CC4(CCCCC4)CC3C(=O)N[C@H](C#N)C[C@@H]3CCNC3=O)cc12 (single isomer, unassigned) [882 (Isomer 2)] | 10 to 30 | 10 to 30
2 | COc1ccc2[nH]c(C(=O)N3CC4(CCC4)CC3C(=O)N[C@H](C#N)C[C@@H]3CCNC3=O)cc2c1Cl (single isomer, unassigned) [886 (Isomer 1)] | > 30 | > 30
3 | COc1ccc2[nH]c(C(=O)N3CC4(CCC4)CC3C(=O)N[C@H](C#N)C[C@@H]3CCNC3=O)cc2c1Cl (single isomer, unassigned) [886 (Isomer 2)] | < 2 | < 2
4 | COc1ccc(Cl)c2[nH]c(C(=O)N3CC4(CCCCC4)CC3C(=O)NC(C#N)C[C@@H]3CCCNC3=O)cc12 (single isomer, unassigned) [902 (Isomer 1)] | < 2 | < 2
5 | COc1ccc(Cl)c2[nH]c(C(=O)N3CC4(CCCCC4)CC3C(=O)NC(C#N)C[C@@H]3CCCNC3=O)cc12 (single isomer, unassigned) [902 (Isomer 2)] | 2 to 10 | 10 to 30
6 | COc1ccc(Cl)c2[nH]c(C(=O)N3CC4(CCCCC4)CC3C(=O)NC(C#N)C[C@@H]3CCCNC3=O)cc12 (single isomer, unassigned) [902 (Isomer 3)] | < 2 | < 2
7 | COc1ccc(Cl)c2[nH]c(C(=O)N3CC4(CCCCC4)CC3C(=O)NC(C#N)C[C@@H]3CCCNC3=O)cc12 (single isomer, unassigned) [902 (Isomer 4)] | > 30 | > 30
8 | COc1cc(Cl)cc2[nH]c(C(=O)N3CC4(CCCCC4)CC3C(=O)N[C@H](C#N)C[C@@H]3CCCNC3=O)cc12 (single isomer, unassigned) [908 (Isomer 1)] | < 2 | < 2
9 | COc1cc(Cl)cc2[nH]c(C(=O)N3CC4(CCCCC4)CC3C(=O)N[C@H](C#N)C[C@@H]3CCCNC3=O)cc12 (single isomer, unassigned) [908 (Isomer 2)] | 2 to 10 | 2 to 10
10 | CC1(C)CCC(C[C@@H](C#N)NC(=O)C2CC3(CCCCC3)CN2C(=O)c2cc3cccc(Cl)c3[nH]2)C(=O)N1 (single isomer, unassigned) [928 (Isomer 3)] | < 2 | 2 to 10
11 | CC1(C)CCC(C[C@@H](C#N)NC(=O)C2CC3(CCCCC3)CN2C(=O)c2cc3cccc(Cl)c3[nH]2)C(=O)N1 (single isomer, unassigned) [928 (Isomer 4)] | 2 to 10 | > 30
12 | CC1(C)CC(C[C@@H](C#N)NC(=O)C2CC3(CCCCC3)CN2C(=O)c2cc3cccc(Cl)c3[nH]2)C(=O)N1 (single isomer, unassigned) [930 (Isomer 1)] | 10 to 30 | > 30
13 | CC1(C)CC(C[C@@H](C#N)NC(=O)C2CC3(CCCCC3)CN2C(=O)c2cc3cccc(Cl)c3[nH]2)C(=O)N1 (single isomer, unassigned) [930 (Isomer 2)] | 10 to 30 | > 30
14 | CC1(C)CC(C[C@@H](C#N)NC(=O)C2CC3(CCCCC3)CN2C(=O)c2cc3cccc(Cl)c3[nH]2)C(=O)N1 (single isomer, unassigned) [930 (Isomer 3)] | < 2 | < 2
15 | CC1(C)CC(C[C@@H](C#N)NC(=O)C2CC3(CCCCC3)CN2C(=O)c2cc3cccc(Cl)c3[nH]2)C(=O)N1 (single isomer, unassigned) [930 (Isomer 3.1)] | < 2 | < 2
16 | CC1(C)CC(C[C@@H](C#N)NC(=O)C2CC3(CCCCC3)CN2C(=O)c2cc3cccc(Cl)c3[nH]2)C(=O)N1 (single isomer, unassigned) [930 (Isomer 3.2)] | 2 to 10 | 10 to 30
17 | CC1(C)CC(C[C@@H](C#N)NC(=O)C2CC3(CCCCC3)CN2C(=O)c2cc3cccc(Cl)c3[nH]2)C(=O)N1 (single isomer, unassigned) [930 (Isomer 4)] | 2 to 10 | 10 to 30
18 | CC1(C)CC(C[C@@H](C#N)NC(=O)C2CC3(CCCCC3)CN2C(=O)c2cc3cccc(Cl)c3[nH]2)C(=O)N1 (single isomer, unassigned) [930 (Isomer 5)] | 10 to 30 | > 30
19 | CC1(C)CC(C[C@@H](C#N)NC(=O)C2CC3(CCCCC3)CN2C(=O)c2cc3cccc(Cl)c3[nH]2)C(=O)N1 (single isomer, unassigned) [930 (Isomer 6)] | < 2 | < 2
20 | COc1cccc2[nH]c(C(=O)N3CC4(CCC(F)(F)CC4)CC3C(=O)N[C@H](C#N)C[C@@H]3CCCNC3=O)cc12 (single isomer, unassigned) [982 (Isomer 1)] | < 2 | < 2
21 | COc1cccc2[nH]c(C(=O)N3CC4(CCC(F)(F)CC4)CC3C(=O)N[C@H](C#N)C[C@@H]3CCCNC3=O)cc12 (single isomer, unassigned) [982 (Isomer 2)] | > 30 | > 30

Row | Structure (SMILES) | IC50 (SARS-CoV2 Mpro) [µM] | EC50 (229E Mpro) [µM]
22 | N#C[C@H](C[C@@H]1CCNC1=O)NC(=O)C1CC2(CCC2)CN1C(=O)c1cc2cccc(Cl)c2[nH]1 (single isomer, unassigned) [988 (Isomer 1)] | > 30 | > 30
23 | N#C[C@H](C[C@@H]1CCNC1=O)NC(=O)C1CC2(CCC2)CN1C(=O)c1cc2cccc(Cl)c2[nH]1 (single isomer, unassigned) [988 (Isomer 2)] | < 2 | < 2
24 | N#C[C@H](C[C@@H]1CCNC1=O)NC(=O)C1CC2(CCC2)CN1C(=O)c1cc2ccc(Cl)cc2[nH]1 (single isomer, unassigned) [990 (Isomer 1)] | > 30 | > 30
25 | N#C[C@H](C[C@@H]1CCNC1=O)NC(=O)C1CC2(CCC2)CN1C(=O)c1cc2ccc(Cl)cc2[nH]1 (single isomer, unassigned) [990 (Isomer 2)] | < 2 | < 2
26 | COc1ccc(Cl)c2[nH]c(C(=O)N3CC4(CCC4)CC3C(=O)N[C@H](C#N)C[C@@H]3CCNC3=O)cc12 (single isomer, unassigned) [992 (Isomer 1)] | < 2 | < 2
27 | COc1ccc(Cl)c2[nH]c(C(=O)N3CC4(CCC4)CC3C(=O)N[C@H](C#N)C[C@@H]3CCNC3=O)cc12 (single isomer, unassigned) [992 (Isomer 2)] | > 30 | > 30
28 | CC1(C)CC(C[C@@H](C#N)NC(=O)[C@H](CC2CC2)NC(=O)c2cc3cccc(Cl)c3[nH]2)C(=O)N1 (single isomer, unassigned) [1053 (Isomer 1)] | 2 to 10 | > 30
29 | COc1cccc2[nH]c(C(=O)N[C@@H](CC3CC3)C(=O)N[C@](C)(C#N)CC3CCNC3=O)cc12 (single isomer, unassigned) [1055 (Isomer 2)] | > 30 | > 30
30 | COc1cccc2[nH]c(C(=O)N[C@@H](CC3CC3(F)F)C(=O)N[C@H](C#N)C[C@@H]3CCCNC3=O)cc12 (single isomer, unassigned) [1059 (Isomer 1)] | < 2 | < 2
31 | COc1cccc2[nH]c(C(=O)N[C@@H](CC3CC3(F)F)C(=O)N[C@H](C#N)C[C@@H]3CCCNC3=O)cc12 (single isomer, unassigned) [1059 (Isomer 2)] | 10 to 30 | 10 to 30
32 | COc1cccc2[nH]c(C(=O)N3CC4(CCCCC4)CC3C(=O)N[C@H](C#N)CC3CCC(C)(C)NC3=O)cc12 (single isomer, unassigned) [1111 (Isomer 1)] | < 2 | 2 to 10
33 | COc1cccc2[nH]c(C(=O)N3CC4(CCCCC4)CC3C(=O)N[C@H](C#N)CC3CCC(C)(C)NC3=O)cc12 (single isomer, unassigned) [1111 (Isomer 2)] | > 30 | > 30
34 | COc1cccc2[nH]c(C(=O)N3CC4(CCCCC4)CC3C(=O)N[C@H](C#N)CC3CCC(C)(C)NC3=O)cc12 (single isomer, unassigned) [1111 (Isomer 3)] | < 2 | 2 to 10
35 | COc1cccc2[nH]c(C(=O)N3CC4(CCCCC4)CC3C(=O)N[C@H](C#N)CC3CCC(C)(C)NC3=O)cc12 (single isomer, unassigned) [1111 (Isomer 4)] | > 30 | > 30
36 | COc1cc(Cl)c2[nH]c(C(=O)N3CC4(CCCCC4)CC3C(=O)N[C@H](C#N)C[C@@H]3CCCNC3=O)cc2c1 (single isomer, unassigned) [1147A (Isomer 1)] | < 2 | < 2
37 | COc1cc(Cl)c2[nH]c(C(=O)N3CC4(CCCCC4)CC3C(=O)N[C@H](C#N)C[C@@H]3CCCNC3=O)cc2c1 (single isomer, unassigned) [1147A (Isomer 2)] | 2 to 10 | 10 to 30
38 | COc1cccc2[nH]c(C(=O)N3CC[C@H](c4ccccc4)[C@H]3C(=O)N[C@H](C#N)C[C@@H]3CCNC3=O)cc12 [Compound 163, (2S,3R)-N-((S)-1-cyano-2-((S)-2-oxopyrrolidin-3-yl)ethyl)-1-(4-methoxy-1H-indole-2-carbonyl)-3-phenylpyrrolidine-2-carboxamide] | 2 to 10 | 10 to 30
39 | COc1cccc2[nH]c(C(=O)N[C@@H](Cc3cccnc3)C(=O)N[C@H](C#N)C[C@@H]3CCNC3=O)cc12 [Compound 191, N-[(1S)-2-[[(1S)-1-cyano-2-[(3S)-2-oxopyrrolidin-3-yl]ethyl]amino]-2-oxo-1-(3-pyridylmethyl)ethyl]-4-methoxy-1H-indole-2-carboxamide] | 2 to 10 | > 30
40 | COc1cccc2[nH]c(C(=O)N3NCCC[C@H]3C(=O)N[C@H](C#N)C[C@@H]3CCNC3=O)cc12 [Compound 199] | 10 to 30 | > 30
41 | COc1cccc2[nH]c(C(=O)N3C[C@H](C)C[C@H]3C(=O)N[C@H](C#N)C[C@@H]3CCNC3=O)cc12 [Compound 413] | 2 to 10 | < 2
42 | COc1cccc2[nH]c(C(=O)N[C@@H](CC3CC3)C(=O)N[C@H](C#N)Cc3ccccn3)cc12 [Compound 439, N-[(1S)-2-[[(1S)-1-cyano-2-(2-pyridyl)ethyl]amino]-1-(cyclopropylmethyl)-2-oxo-ethyl]-4-methoxy-1H-indole-2-carboxamide] | 10 to 30 | > 30
